{"source": "patent US8680076B2", "about": "“Methods of treatment, improvement and prevention using haloaryl substituted aminopurines” (Signal Pharmaceuticals, LLC, priority 2010, dated 2014)", "key": {"[1]": {"tested_on": "c-Jun (JNK) in human skin", "experiment": "UVB-irradiated human skin, c-Jun IHC (3-way crossover study)", "assay_type": "in vivo", "settings": "for median subjective score of c-Jun: scale 0-4", "procedure": "The inhibitory effect of JNKi-1 on JNK was evaluated by assessing the status of the downstream substrate c-Jun (“cJun”) and phospho-c-Jun (or “p-cJun”) following UV irradiation of human skin.\nThe study was designed as randomized, double blind, placebo controlled, multiple dose, 3-way crossover study. Fifteen subjects were randomized to one of 3 sequences (5 subjects per sequence) as outlined below (see Table 3). There was a 7-day to 10 day washout period (no more than 14 days) from the last dose of the previous period to the first dose of the next period.\nFifteen patients enrolled, 14 completed the study and were included in the PD and PK analyses; all were healthy Caucasian male volunteers with Fitzpatrick skin type 2. The mean age was […] (20-49 years) and weight was 81 kg (64-96 kg). On the evening of Day-1, patients started fasting (at least an 8-hour fast prior to dosing on Day 1). Subjects received treatment A, B or C in Periods 1 to 3 under fasting conditions in an order based on the randomization scheme. Subjects went through the same procedures (except for the change in treatment) for all 3 periods, with the required washout in between periods. No strenuous activities were permitted during confinement. All efforts were made to keep activities, environment, food, procedures, and schedule between treatment periods identical.\nOn Day 6, subjects received a 2×MED UV dose to two sites on the buttock. One punch biopsy (approximately 3 mm in diameter by 0.8 mm in depth) was taken from one of the two UV irradiated sites. The punch biopsies were taken at 8 (±5 minutes) hours post UV exposure on Day 6.\nSkin specimens from the biopsies was analyzed for phospho c-Jun and total c-Jun using IHC assay. Phospho c-Jun was quantified using a 0-4 subjective grading scales and/or objective scoring using an automated system, i.e. a laser scanning cytometer (LSC), evaluating the integrated intensity of staining measured optically.\nBiopsies were analyzed following the procedures described below to evaluate phospho c-Jun and c-Jun expression using IHC assay. The method employed to assess JNK activation was a two antibody IHC assay that employed a primary antibody, directed against the target, and a secondary antibody conjugated with a chromogenic enzyme. Thus, the method was a two-step immunohistochemical assay designed to interrogate the target, c-Jun and phospho c-Jun. Any changes in JNK activity were measurable in the amounts of these target molecules, c-Jun and phospho c-Jun. The secondary antibody-reporter conjugate deposited a red color when incubated with the substrate reaction mix, thus marking the location of the primary antibody target complex. The red color was then recorded with standard bright-field illumination using a Nikon microscope. The microscope images were then photographed and electronic images were scored (blinded) by three independent and trained scorers using the following guidelines. A score of 0 indicated staining of 0-19% of the epithelial keratinocyte nuclei; a score of 1 indicated staining of 20-39% of the epithelial keratinocyte nuclei; a score of 2 indicated staining of 40-59% of the epithelial keratinocyte nuclei; a score of 3 indicated staining of 60-79% of the epithelial keratinocyte nuclei; and a score of 4 indicated staining of 80-100% of the epithelial keratinocyte nuclei. FIG. 21 depicts representative immunostaining for the respective scores.\nFor each tissue, a count of nuclei in the epithelial layer was obtained. All phospho c-Jun or c-Jun positive nuclei were counted as well as their integral (intensity). A score was calculated for each: score=(p-cJun or cJun positive nuclei×average Intensity)/Total nuclei."}, "[2]": {"tested_on": "phosphorylation of the JNK target cJun in dermal SSc-fibroblasts", "experiment": "Western Blot analysis of c-Jun phosphorylation in TGF-β/PDGF-stimulated cultured dermal fibroblasts", "assay_type": "cell-based, human", "settings": "pre-incubation with compound", "procedure": "To analyze whether the JNK pathway was activated by TGF-β and PDGF, Western Blot analysis for c-Jun in cultured dermal fibroblasts was performed.\nAfter rinsing twice with PBS, the dermal fibroblasts were trypsinized and lysed with Laemmli Buffer. Five μg of protein from each sample were separated by 10% SDS-PAGE and electrotransferred onto polyvinylidene difluoride (PVDF) membranes according to standard protocols (Distler J H, Jungel A, Kowal-Bielecka O, Michel B A, Gay R E, Sprott H, et al. Expression of interleukin-21 receptor in epidermis from patients with systemic sclerosis. Arthritis Rheum. 2005; 52(3):856-64). Immunoblots were incubated with monoclonal antibodies against c-Jun and phospho-c-Jun (Santa Cruz, Heidelberg, Germany) at a dilution of 1:200 overnight at 4° C. After incubation with horseradish peroxidase-conjugated rabbit anti-mouse antibodies (Dako, Hamburg, Germany) for 1 hour at a dilution of 1:2000, signals were detected with ECL Western Blotting Detection Reagents (Amersham Bioscience, Freiburg, Germany). For confirmation of equal loading of proteins, the amount of β-actin was determined using mouse anti-human β-actin antibodies (Sigma-Aldrich, Munich, Germany; dilution 1:10000)."}}, "note": "Entries after “also recorded” stand apart in the source; their conditions may differ."}
{"compound": "O[C@H]1CC[C@H](Nc2ncc3nc(Nc4c(F)cc(F)cc4F)n([C@H]4CCOC4)c3n2)CC1", "note": "[JNKi-1, 4-((9-((3S)-tetrahydro-3-furanyl)-8-((2,4,6-trifluorophenyl)amino)-9H-purin-2-yl)amino)-trans-cyclohexanol]", "values": [{"measurement": "median subjective score of c-Jun", "setting": "[1]; 75 mg QD x 6 days", "result": 3}, {"measurement": "odds ratio, c-Jun scores 0, 1, 2 vs. scores 3, 4 (logistic regression)", "setting": "[1]; 75 mg vs. placebo", "result": 3.69}, {"measurement": "median subjective score of c-Jun", "setting": "[1]; 200 mg QD x 6 days", "result": 2}, {"measurement": "frequency of high c-Jun subjective scores", "setting": "[1]; 200 mg vs placebo", "result": "fewer subjects had high cJun scores; also recorded: fewer patients had high scores"}, {"measurement": "odds ratio, c-Jun scores 0, 1, 2 vs. scores 3, 4 (logistic regression)", "setting": "[1]; 200 mg vs. placebo", "result": 9.30}, {"measurement": "c-Jun immunostaining, percentage of positive epithelial nuclei, Patient 15", "setting": "[1]; versus placebo", "result": "significantly decreased"}, {"measurement": "stimulatory effect of PDGF on c-Jun phosphorylation", "setting": "[2]", "result": "completely prevented"}, {"measurement": "stimulatory effects of TGF-β and PDGF on the phosphorylation of c-Jun", "setting": "[2]", "result": "reduced the stimulatory effects"}]}
